{"source": "ChEMBL document CHEMBL3875144", "about": "“Novel fluorinated pyrrolomycins as potent anti-staphylococcal biofilm agents: Design, synthesis, pharmacokinetics and antibacterial activities” (Eur J Med Chem, 2016)", "key": {"[1]": {"assay": "Bactericidal activity against methicillin-resistant Staphylococcus aureus USA300 JE2 incubated up to 24 hrs", "format": "functional, Staphylococcus aureus subsp. aureus USA300", "conditions": "JE2, 24 h"}, "[2]": {"tested_on": "Staphylococcus aureus subsp. aureus USA300", "assay": "Antibiofilm activity against methicillin-resistant Staphylococcus aureus USA300 JE2 at 8 ug/ml measured at 24 hrs post dose relative to control", "format": "functional"}, "[3]": {"tested_on": "Staphylococcus aureus subsp. aureus USA300", "assay": "Antibiofilm activity against methicillin-resistant Staphylococcus aureus USA300 JE2 at 8 ug/ml measured at 48 hrs post dose relative to control", "format": "functional"}, "[4]": {"assay": "Antibacterial activity against methicillin-resistant Staphylococcus aureus USA300 JE2 incubated for 20 to 24 hrs by broth microdilution assay", "format": "functional, Staphylococcus aureus subsp. aureus USA300"}, "[5]": {"assay": "Plasma concentration in Balc/c mouse at 10 mg/kg administered via oral gavage up to 72 hrs by LC-MS/MS method", "format": "ADME, organism-based"}, "[6]": {"assay": "Cytotoxicity against human HeLa cells assessed as decrease in cell viability measured after 24 hrs by MTS assay", "format": "toxicity, cell-based"}, "[7]": {"assay": "Plasma concentration in Balc/c mouse at 1 mg/kg, iv up to 72 hrs by LC-MS/MS method", "format": "ADME, organism-based"}, "[8]": {"assay": "Selectivity index, ratio of IC50 for cytotoxicity against human HeLa cells to MIC for antibacterial activity against methicillin-resistant Staphylococcus aureus USA300 JE2", "format": "toxicity, cell-based", "conditions": "read-out: Selectivity Index"}, "[9]": {"tested_on": "Staphylococcus aureus subsp. aureus USA300", "assay": "Antibiofilm activity against methicillin-resistant Staphylococcus aureus USA300 JE2 assessed as disruption of preformed biofilms at 8 ug/ml within 5 days", "format": "functional"}, "[10]": {"assay": "Tmax in Balc/c mouse at 10 mg/kg administered via oral gavage by LC-MS/MS method", "format": "ADME, organism-based", "conditions": "in vivo"}, "[11]": {"tested_on": "Staphylococcus aureus subsp. aureus USA300", "assay": "Bactericidal activity against methicillin-resistant Staphylococcus aureus USA300 JE2 at 8 ug/ml incubated up to 24 hrs relative to control", "format": "functional"}, "[12]": {"tested_on": "Staphylococcus aureus subsp. aureus USA300", "assay": "Antibiofilm activity against methicillin-resistant Staphylococcus aureus USA300 JE2 at 32 ug/ml measured at 48 hrs post dose relative to control", "format": "functional"}, "[13]": {"tested_on": "Staphylococcus aureus subsp. aureus USA300", "assay": "Antibiofilm activity against methicillin-resistant Staphylococcus aureus USA300 JE2 at 32 ug/ml measured at 24 hrs post dose relative to control", "format": "functional"}}, "note": "The source made the active and inactive calls. The rule behind the calls is not given here."}
{"molecule": "O=C(c1cc(Br)c(F)[nH]1)c1cc(Cl)cc(Cl)c1O", "values": [{"measurement": "MBC", "setting": "[1]", "result": 4, "unit": "µg/mL"}, {"measurement": "Activity", "setting": "[2]", "result": 84, "unit": "%"}, {"measurement": "Activity", "setting": "[3]", "result": 97, "unit": "%"}, {"measurement": "MIC", "setting": "[4]", "result": 0.073, "unit": "µg/mL"}, {"measurement": "concentration at 72 h", "setting": "[5]", "result": "≥ 0.8", "unit": "ng/mL"}, {"measurement": "IC50 at 24 h", "setting": "[6]", "result": "> 35.3", "unit": "µM"}, {"measurement": "concentration at 72 h", "setting": "[7]", "result": "≥ 0.8", "unit": "ng/mL"}, {"measurement": "selectivity ratio", "setting": "[8]", "result": "> 484"}, {"measurement": "Activity", "setting": "[9]", "result": "Active"}, {"measurement": "Tmax", "setting": "[10]", "result": 15, "unit": "min"}]}
{"molecule": "COc1c(F)cc(F)cc1C(=O)c1ccc[nH]1", "values": [{"measurement": "MIC", "setting": "[4]", "result": "> 4", "unit": "µg/mL"}]}
{"molecule": "COc1c(F)cc(F)cc1C(=O)c1[nH]c(Br)c(Br)c1Br", "values": [{"measurement": "MIC", "setting": "[4]", "result": 3, "unit": "µg/mL"}]}
{"molecule": "O=C(c1cc(Br)c(Br)[nH]1)c1cc(Cl)cc(Cl)c1O", "values": [{"measurement": "MBC", "setting": "[1]", "result": 8, "unit": "µg/mL"}, {"measurement": "Activity", "setting": "[11]", "result": 92.5, "unit": "%"}, {"measurement": "MIC", "setting": "[4]", "result": 0.073, "unit": "µg/mL"}, {"measurement": "IC50 at 24 h", "setting": "[6]", "result": "> 41.4", "unit": "µM"}, {"measurement": "selectivity ratio", "setting": "[8]", "result": "> 567"}]}
{"molecule": "O=C(c1ccccc1O)c1[nH]c(Cl)c(Cl)c1-n1c(C(=O)c2cc(F)ccc2O)cc(Cl)c1Cl", "values": [{"measurement": "MIC", "setting": "[4]", "result": 0.19, "unit": "µg/mL"}, {"measurement": "IC50 at 24 h", "setting": "[6]", "result": "> 52.8", "unit": "µM"}, {"measurement": "selectivity ratio", "setting": "[8]", "result": "> 280"}]}
{"molecule": "Cn1c(Br)c(Br)c(Br)c1C(=O)c1cc(F)cc(F)c1O", "values": [{"measurement": "MIC", "setting": "[4]", "result": "> 4", "unit": "µg/mL"}]}
{"molecule": "COc1c(F)cc(F)cc1C(=O)c1c(Br)c(Br)c(Br)n1C", "values": [{"measurement": "MIC", "setting": "[4]", "result": "> 4", "unit": "µg/mL"}]}
{"molecule": "CN[C@H](CC(C)C)C(=O)N[C@H]1C(=O)N[C@@H](CC(N)=O)C(=O)N[C@H]2C(=O)N[C@H]3C(=O)N[C@H](C(=O)N[C@H](C(=O)O)c4cc(O)cc(O)c4-c4cc3ccc4O)[C@H](O)c3ccc(c(Cl)c3)Oc3cc2cc(c3O[C@@H]2O[C@H](CO)[C@@H](O)[C@H](O)[C@H]2O[C@H]2C[C@](C)(N)[C@H](O)[C@H](C)O2)Oc2ccc(cc2Cl)[C@H]1O", "note": "[VANCOMYCIN]", "values": [{"measurement": "MBC", "setting": "[1]", "result": 8, "unit": "µg/mL"}, {"measurement": "MIC", "setting": "[4]", "result": 2, "unit": "µg/mL"}, {"measurement": "Activity", "setting": "[12]", "result": 39, "unit": "%"}, {"measurement": "Activity", "setting": "[13]", "result": 11, "unit": "%"}]}
{"molecule": "O=C(c1cc(Br)c[nH]1)c1cc(Cl)cc(Cl)c1O", "values": [{"measurement": "MIC", "setting": "[4]", "result": "> 4", "unit": "µg/mL"}]}
{"molecule": "O=C(c1ccccc1O)c1[nH]c(Cl)c(Cl)c1-n1c(C(=O)c2ccc(Cl)cc2O)cc(Cl)c1Cl", "values": [{"measurement": "MIC", "setting": "[4]", "result": 0.078, "unit": "µg/mL"}, {"measurement": "IC50 at 24 h", "setting": "[6]", "result": "> 40.9", "unit": "µM"}, {"measurement": "selectivity ratio", "setting": "[8]", "result": "> 524"}]}
{"molecule": "O=C(c1cc(Cl)cc(Cl)c1O)c1[nH]c(F)c(Br)c1Br", "values": [{"measurement": "MIC", "setting": "[4]", "result": 0.19, "unit": "µg/mL"}, {"measurement": "IC50 at 24 h", "setting": "[6]", "result": "> 43.2", "unit": "µM"}, {"measurement": "selectivity ratio", "setting": "[8]", "result": "> 229"}]}
{"molecule": "O=C(c1cc(F)cc(F)c1O)c1[nH]c(Br)c(Br)c1Br", "values": [{"measurement": "MIC", "setting": "[4]", "result": 0.17, "unit": "µg/mL"}, {"measurement": "IC50 at 24 h", "setting": "[6]", "result": "> 46", "unit": "µM"}, {"measurement": "selectivity ratio", "setting": "[8]", "result": "> 275"}]}
{"molecule": "O=C(c1ccc[nH]1)c1cc(F)cc(F)c1O", "values": [{"measurement": "MIC", "setting": "[4]", "result": "> 4", "unit": "µg/mL"}]}
{"molecule": "O=C(c1ccc[nH]1)c1cc(Cl)cc(Cl)c1O", "values": [{"measurement": "MIC", "setting": "[4]", "result": "> 4", "unit": "µg/mL"}]}
